Reference: patent publication US20200354426A1 (MEDIMMUNE LIMITED, priority 2016, published 2020)
Like-named read-outs stand apart in the source and are kept apart here. Numbered stars: 1 amine (or outer) side, 2 acyl side, 3 side chain; on linkers, the order of the positions; unused ones are H or OH. Side chains are listed from the residue outwards. Peptide text beside a SMILES is read from it. * marks the point of attachment. γGlu = O=C(O)[C@H](CCC(=O)[*:2])N[*:1]; Palmitoyl = CCCCCCCCCCCCCCCC(=O)*

Columns and labels:
Human GlucR = target: T1, Human GlucR (Homo sapiens, UniProt P47871); assay: cAMP activity assay in assay medium (assay 1); format: cell-based; details: assay medium
T1 construct: expressed in transfected cells
T1 sequence (P47871 26-477): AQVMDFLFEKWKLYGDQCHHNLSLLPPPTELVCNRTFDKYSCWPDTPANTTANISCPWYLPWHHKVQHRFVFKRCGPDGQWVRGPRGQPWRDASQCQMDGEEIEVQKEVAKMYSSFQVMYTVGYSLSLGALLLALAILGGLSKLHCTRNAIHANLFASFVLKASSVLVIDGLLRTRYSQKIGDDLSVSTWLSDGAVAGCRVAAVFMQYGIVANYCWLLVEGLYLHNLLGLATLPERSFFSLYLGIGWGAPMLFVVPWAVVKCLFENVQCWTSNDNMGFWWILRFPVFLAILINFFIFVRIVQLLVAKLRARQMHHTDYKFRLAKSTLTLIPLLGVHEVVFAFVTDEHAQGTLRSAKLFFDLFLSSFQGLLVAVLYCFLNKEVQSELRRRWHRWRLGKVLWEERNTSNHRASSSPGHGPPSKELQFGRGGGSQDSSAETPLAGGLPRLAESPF
From the text: (§1) Biological Activity of Peptides in Cell-Based cAMP Activity Assay (Assay 1):
(§2) All sample dilutions were made in duplicate.

Human GLP1R = Human GLP1R (Homo sapiens, UniProt P43220); assay: cAMP activity assay in assay medium (assay 1); format: cell-based; design: expressed in transfected cells; details: assay medium
Human GLP1R, sequence (P43220 24-463): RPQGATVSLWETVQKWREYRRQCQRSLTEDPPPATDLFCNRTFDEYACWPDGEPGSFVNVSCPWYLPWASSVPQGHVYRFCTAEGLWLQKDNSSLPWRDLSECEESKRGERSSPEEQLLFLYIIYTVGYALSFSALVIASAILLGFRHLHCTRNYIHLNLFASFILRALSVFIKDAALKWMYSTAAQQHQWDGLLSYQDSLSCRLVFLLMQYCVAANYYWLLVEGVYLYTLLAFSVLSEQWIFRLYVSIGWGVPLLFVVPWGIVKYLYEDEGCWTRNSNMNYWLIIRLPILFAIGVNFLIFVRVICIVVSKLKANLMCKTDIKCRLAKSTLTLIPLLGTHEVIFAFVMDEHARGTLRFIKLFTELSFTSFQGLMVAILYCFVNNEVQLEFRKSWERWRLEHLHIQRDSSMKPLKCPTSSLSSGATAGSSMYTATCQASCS
From the text: as §1, §2

| SMILES | EC50 (Human GlucR; Table 3, C-terminal acid peptides, read-out: Human GlucR EC50) | EC50 (Human GLP1R; Table 3, C-terminal acid peptides, read-out: Human GLP1R EC50) | EC50 (Human GLP1R; Table 4, read-out: hGLP1R EC50) | EC50 (Human GlucR; Table 4, read-out: hGlucR EC50) |
| --- | --- | --- | --- | --- |
| CC(C)C[C@H](NC(=O)[C@H](Cc1ccc(O)cc1)NC(=O)[C@H](CCCCN)NC(=O)[C@H](CO)NC(=O)[C@H](Cc1ccc(O)cc1)NC(=O)[C@H](CC(=O)O)NC(=O)[C@H](CO)NC(=O)[C@@H](NC(=O)[C@H](Cc1ccccc1)NC(=O)[C@@H](NC(=O)CNC(=O)[C@H](CCC(N)=O)NC(=O)[C@H](CO)NC(=O)[C@@H](N)Cc1c[nH]cn1)[C@@H](C)O)[C@@H](C)O)C(=O)N[C@@H](CC(=O)O)C(=O)N[C@@H](CO)C(=O)N[C@@H](CCCNC(=N)N)C(=O)N[C@@H](CCCNC(=N)N)C(=O)N[C@@H](C)C(=O)N[C@@H](CCC(N)=O)C(=O)N[C@@H](CC(=O)O)C(=O)N[C@@H](Cc1ccccc1)C(=O)N[C@H](C(=O)N[C@@H](CCC(N)=O)C(=O)N[C@@H](Cc1c[nH]c2ccccc12)C(=O)N[C@@H](CC(C)C)C(=O)N[C@H](C(=O)N[C@@H](CCCNC(=N)N)C(=O)NCC(=O)NCC(=O)N[C@@H](CO)C(=O)N[C@@H](CO)C(=O)NCC(=O)NCC(=O)N[C@@H](CO)C(=O)N[C@@H](CO)C(=O)N[C@@H](CCCCN)C(N)=O)C(C)C)C(C)C [g317] |  |  | 2.63 nM |  |
| CCCCCCCCCCCCCCCC(=O)NCCCC[C@H](NC(=O)[C@H](CO)NC(=O)[C@H](CO)NC(=O)CNC(=O)CNC(=O)[C@H](CO)NC(=O)[C@H](CO)NC(=O)CNC(=O)CNC(=O)[C@H](CCCNC(=N)N)NC(=O)[C@@H](NC(=O)[C@H](CC(C)C)NC(=O)[C@H](Cc1c[nH]c2ccccc12)NC(=O)[C@H](CCC(N)=O)NC(=O)[C@@H](NC(=O)[C@H](Cc1ccccc1)NC(=O)[C@H](CC(=O)O)NC(=O)[C@H](CCC(N)=O)NC(=O)[C@H](C)NC(=O)[C@H](CCCNC(=N)N)NC(=O)[C@H](CCCNC(=N)N)NC(=O)[C@H](CO)NC(=O)[C@H](CC(=O)O)NC(=O)[C@H](CC(C)C)NC(=O)[C@H](Cc1ccc(O)cc1)NC(=O)[C@H](CCCCN)NC(=O)[C@H](CO)NC(=O)[C@H](Cc1ccc(O)cc1)NC(=O)[C@H](CC(=O)O)NC(=O)[C@H](CO)NC(=O)[C@@H](NC(=O)[C@H](Cc1ccccc1)NC(=O)[C@@H](NC(=O)CNC(=O)[C@H](CCC(N)=O)NC(=O)[C@H](CO)NC(=O)[C@@H](N)Cc1c[nH]cn1)[C@@H](C)O)[C@@H](C)O)C(C)C)C(C)C)C(N)=O [g318] |  |  | 1.14 nM | 9.04 nM |
| CC(C)C[C@H](NC(=O)[C@H](Cc1ccc(O)cc1)NC(=O)[C@H](CCCCN)NC(=O)[C@H](CO)NC(=O)[C@H](Cc1ccc(O)cc1)NC(=O)[C@H](CC(=O)O)NC(=O)[C@H](CO)NC(=O)[C@@H](NC(=O)[C@H](Cc1ccccc1)NC(=O)[C@@H](NC(=O)CNC(=O)[C@H](CCC(N)=O)NC(=O)[C@H](CO)NC(=O)[C@@H](N)Cc1c[nH]cn1)[C@@H](C)O)[C@@H](C)O)C(=O)N[C@@H](CC(=O)O)C(=O)N[C@@H](CO)C(=O)N[C@@H](CCCNC(=N)N)C(=O)N[C@@H](CCCNC(=N)N)C(=O)N[C@@H](C)C(=O)N[C@@H](CCC(N)=O)C(=O)N[C@@H](CC(=O)O)C(=O)N[C@@H](Cc1ccccc1)C(=O)N[C@H](C(=O)N[C@@H](CCC(N)=O)C(=O)N[C@@H](Cc1c[nH]c2ccccc12)C(=O)N[C@@H](CC(C)C)C(=O)N[C@H](C(=O)N[C@@H](CCCNC(=N)N)C(=O)NCC(=O)NCC(=O)NCC(=O)NCC(=O)NCC(=O)NCC(=O)N[C@@H](CCCCN)C(N)=O)C(C)C)C(C)C [g325] |  |  |  | 0.0103 nM |
| CC(C)C[C@H](NC(=O)[C@H](Cc1ccc(O)cc1)NC(=O)[C@H](CCCCN)NC(=O)[C@H](CO)NC(=O)[C@H](Cc1ccc(O)cc1)NC(=O)[C@H](CC(=O)O)NC(=O)[C@H](CO)NC(=O)[C@@H](NC(=O)[C@H](Cc1ccccc1)NC(=O)[C@@H](NC(=O)CNC(=O)[C@H](CCC(N)=O)NC(=O)[C@H](CO)NC(=O)[C@@H](N)Cc1c[nH]cn1)[C@@H](C)O)[C@@H](C)O)C(=O)N[C@@H](CC(=O)O)C(=O)N[C@@H](CO)C(=O)N[C@@H](CCCNC(=N)N)C(=O)N[C@@H](CCCNC(=N)N)C(=O)N[C@@H](C)C(=O)N[C@@H](CCC(N)=O)C(=O)N[C@@H](CC(=O)O)C(=O)N[C@@H](Cc1ccccc1)C(=O)N[C@H](C(=O)N[C@@H](CCC(N)=O)C(=O)N[C@@H](Cc1c[nH]c2ccccc12)C(=O)N[C@@H](CC(C)C)C(=O)N[C@H](C(=O)N[C@@H](CCCNC(=N)N)C(=O)NCC(=O)NCC(=O)N[C@@H](CO)C(=O)NCC(=O)N[C@@H](CO)C(=O)NCC(=O)N[C@@H](CO)C(=O)NCC(N)=O)C(C)C)C(C)C [g402] |  |  | 0.0857 nM | 0.0596 nM |

Next, values leading:

| EC50 (Human GlucR; Table 3, C-terminal acid peptides, read-out: Human GlucR EC50) | EC50 (Human GLP1R; Table 3, C-terminal acid peptides, read-out: Human GLP1R EC50) | EC50 (Human GLP1R; Table 4, read-out: hGLP1R EC50) | EC50 (Human GlucR; Table 4, read-out: hGlucR EC50) | SMILES |
| --- | --- | --- | --- | --- |
| 0.0178 nM | 0.13 nM |  |  | CCCCCCCCCCCCCCCC(=O)N[C@@H](CCC(=O)NCCCC[C@H](NC(=O)[C@H](CCCCN)NC(=O)[C@H](CO)NC(=O)[C@H](Cc1ccc(O)cc1)NC(=O)[C@H](CC(=O)O)NC(=O)[C@H](CO)NC(=O)[C@@H](NC(=O)[C@H](Cc1ccccc1)NC(=O)[C@@H](NC(=O)CNC(=O)[C@H](CCC(N)=O)NC(=O)[C@H](CO)NC(=O)[C@@H](N)Cc1c[nH]cn1)[C@@H](C)O)[C@@H](C)O)C(=O)N[C@@H](CC(C)C)C(=O)N[C@@H](CC(=O)O)C(=O)N[C@@H](CO)C(=O)N[C@@H](CCC(=O)O)C(=O)N[C@@H](CCCNC(=N)N)C(=O)N[C@@H](C)C(=O)N[C@@H](CCCNC(=N)N)C(=O)N[C@@H](CC(=O)O)C(=O)N[C@@H](Cc1ccccc1)C(=O)N[C@H](C(=O)N[C@@H](C)C(=O)N[C@@H](Cc1c[nH]c2ccccc12)C(=O)N[C@@H](CC(C)C)C(=O)N[C@H](C(=O)N[C@@H](C)C(=O)NCC(=O)NCC(=O)O)C(C)C)C(C)C)C(=O)O [Peptide G931] (H-HSQGTFTSDYSKK([γGlu-Palmitoyl])LDSERARDFVAWLVAGG-OH; N-terminus assumed) |
|  |  | 0.0143 nM | 0.195 nM | CCCCCCCCCCCCCCCC(=O)NCCCCCC(=O)NCCCC[C@H](NC(=O)[C@H](CO)NC(=O)[C@H](CC(=O)O)NC(=O)[C@H](CC(C)C)NC(=O)[C@H](Cc1ccc(O)cc1)NC(=O)[C@H](CCC(=O)O)NC(=O)[C@H](CO)NC(=O)[C@H](Cc1ccc(O)cc1)NC(=O)[C@H](CC(=O)O)NC(=O)[C@H](CO)NC(=O)[C@@H](NC(=O)[C@H](Cc1ccccc1)NC(=O)[C@@H](NC(=O)CNC(=O)[C@H](CCC(N)=O)NC(=O)CNC(=O)[C@@H](N)Cc1c[nH]cn1)[C@@H](C)O)[C@@H](C)O)C(=O)N[C@@H](CCCNC(=N)N)C(=O)N[C@@H](C)C(=O)N[C@@H](CCCNC(=N)N)C(=O)N[C@@H](CC(=O)O)C(=O)N[C@@H](Cc1ccccc1)C(=O)N[C@H](C(=O)N[C@@H](CCC(=O)O)C(=O)N[C@@H](Cc1c[nH]c2ccccc12)C(=O)N[C@@H](CC(C)C)C(=O)N[C@@H](CCC(=O)O)C(=O)N[C@@H](CCCNC(=N)N)C(=O)NCC(=O)NCC(N)=O)C(C)C [g682] |
|  |  | 7.4 nM | 3.83 nM | CCCCCCCCCCCCCCCC(=O)N[C@@H](CCC(=O)NCCCC[C@H](NC(=O)[C@H](CO)NC(=O)[C@H](Cc1ccc(O)cc1)NC(=O)[C@H](CC(=O)O)NC(=O)[C@H](CO)NC(=O)[C@@H](NC(=O)[C@H](Cc1ccccc1)NC(=O)[C@@H](NC(=O)CNC(=O)[C@H](CCC(N)=O)NC(=O)CNC(=O)[C@@H](N)Cc1c[nH]cn1)[C@@H](C)O)[C@@H](C)O)C(=O)N[C@@H](Cc1ccc(O)cc1)C(=O)N[C@@H](CC(C)C)C(=O)N[C@@H](CC(=O)O)C(=O)N[C@@H](CO)C(=O)N[C@@H](CCC(=O)O)C(=O)N[C@@H](CCCNC(=N)N)C(=O)N[C@@H](C)C(=O)N[C@@H](CCC(N)=O)C(=O)N[C@@H](CC(=O)O)C(=O)N[C@@H](Cc1ccccc1)C(=O)N[C@H](C(=O)N[C@@H](CCC(N)=O)C(=O)N[C@@H](Cc1c[nH]c2ccccc12)C(=O)N[C@@H](CC(C)C)C(=O)N[C@@H](CCC(=O)O)C(=O)N[C@@H](CCCNC(=N)N)C(=O)NCC(=O)NCC(N)=O)C(C)C)C(=O)O [g701] (H-HGQGTFTSDYSK([γGlu-Palmitoyl])YLDSERAQDFVQWLERGG-NH2; N-terminus assumed) |
|  |  | 3.35 nM | 1.49 nM | CCCCCCCCCCCCCCCC(=O)N[C@@H](CCC(=O)NCCCC[C@H](NC(=O)[C@H](CO)NC(=O)[C@H](Cc1ccc(O)cc1)NC(=O)[C@H](CC(=O)O)NC(=O)[C@H](CO)NC(=O)[C@@H](NC(=O)[C@H](Cc1ccccc1)NC(=O)[C@@H](NC(=O)CNC(=O)[C@H](CCC(N)=O)NC(=O)[C@H](CO)NC(=O)[C@@H](N)Cc1c[nH]cn1)[C@@H](C)O)[C@@H](C)O)C(=O)N[C@@H](Cc1ccc(O)cc1)C(=O)N[C@@H](CC(C)C)C(=O)N[C@@H](CC(=O)O)C(=O)N[C@@H](CO)C(=O)N[C@@H](CCC(=O)O)C(=O)N[C@@H](CCCNC(=N)N)C(=O)N[C@@H](C)C(=O)N[C@@H](CCC(N)=O)C(=O)N[C@@H](CC(=O)O)C(=O)N[C@@H](Cc1ccccc1)C(=O)N[C@H](C(=O)N[C@@H](CCC(N)=O)C(=O)N[C@@H](Cc1c[nH]c2ccccc12)C(=O)N[C@@H](CC(C)C)C(=O)N[C@H](C(=O)N[C@@H](C)C(=O)NCC(=O)NCC(N)=O)C(C)C)C(C)C)C(=O)O [g702] (H-HSQGTFTSDYSK([γGlu-Palmitoyl])YLDSERAQDFVQWLVAGG-NH2; N-terminus assumed) |
|  |  | 0.0534 nM | 0.352 nM | CCCCCCCCCCCCCCCC(=O)N[C@@H](CCC(=O)NCCCC[C@H](NC(=O)[C@H](CO)NC(=O)[C@H](CC(=O)O)NC(=O)[C@H](CC(C)C)NC(=O)[C@H](Cc1ccc(O)cc1)NC(=O)[C@H](CCCNC(=N)N)NC(=O)[C@H](CO)NC(=O)[C@H](Cc1ccc(O)cc1)NC(=O)[C@H](CC(=O)O)NC(=O)[C@H](CO)NC(=O)[C@@H](NC(=O)[C@H](Cc1ccccc1)NC(=O)[C@@H](NC(=O)CNC(=O)[C@H](CCC(N)=O)NC(=O)CNC(=O)[C@@H](N)Cc1c[nH]cn1)[C@@H](C)O)[C@@H](C)O)C(=O)N[C@@H](CCCNC(=N)N)C(=O)N[C@@H](C)C(=O)N[C@@H](CCCNC(=N)N)C(=O)N[C@@H](CC(=O)O)C(=O)N[C@@H](Cc1ccccc1)C(=O)N[C@H](C(=O)N[C@@H](CCC(=O)O)C(=O)N[C@@H](Cc1c[nH]c2ccccc12)C(=O)N[C@@H](CC(C)C)C(=O)N[C@H](C(=O)N[C@@H](C)C(=O)NCC(=O)NCC(N)=O)C(C)C)C(C)C)C(=O)O [g720] (H-HGQGTFTSDYSRYLDSK([γGlu-Palmitoyl])RARDFVEWLVAGG-NH2; N-terminus assumed) |
